Series [1] relates to NCI-H460 (human NSCLC) cells. Kind of series: Cell uptake studies: 30 min uptake in H460 cells. Type of series: cell-based. Particulars: 0.25 MBq tracer, PBS 0.1% BSA. Here is the method:
For determination of the biological activity, the F18 labeled derivatives were used as tracers in cell uptake experiments. NCI-H460 (human NSCLC) cells, grown adherently in 48 well plates were used for these uptake-experiments. Approximately 100.000 cells were incubated with 0.25 MBq of the tracers for 30 min in PBS-buffer containing 0.1% BSA. After this time, the cell-bound radioactivity was determined using a γ-counter.

For the next series, the target named is T1, xCT (SLC7A11) (Homo sapiens, UniProt Q9UPY5).
T1 construct: NCI-H460 tumor cells were co-incubated with the F-18 labeled tracer and several cold derivatives; endogenous in cells; host or cells: NCI-H460 tumor cells
T1 sequence (Q9UPY5 1-501): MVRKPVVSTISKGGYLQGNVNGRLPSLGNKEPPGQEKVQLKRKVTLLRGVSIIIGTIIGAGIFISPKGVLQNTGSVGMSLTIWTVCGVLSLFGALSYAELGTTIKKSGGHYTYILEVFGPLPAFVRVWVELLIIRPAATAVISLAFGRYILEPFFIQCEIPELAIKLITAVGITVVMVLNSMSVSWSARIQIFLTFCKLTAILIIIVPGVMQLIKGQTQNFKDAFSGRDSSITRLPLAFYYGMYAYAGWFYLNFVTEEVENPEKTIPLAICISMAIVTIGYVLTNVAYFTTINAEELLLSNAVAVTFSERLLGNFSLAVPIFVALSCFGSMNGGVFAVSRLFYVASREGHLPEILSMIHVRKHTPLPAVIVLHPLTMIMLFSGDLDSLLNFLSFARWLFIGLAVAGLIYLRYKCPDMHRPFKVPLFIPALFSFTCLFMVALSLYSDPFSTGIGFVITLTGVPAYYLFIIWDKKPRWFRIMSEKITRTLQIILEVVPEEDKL
T1 sequence (P08195 1-529 partner): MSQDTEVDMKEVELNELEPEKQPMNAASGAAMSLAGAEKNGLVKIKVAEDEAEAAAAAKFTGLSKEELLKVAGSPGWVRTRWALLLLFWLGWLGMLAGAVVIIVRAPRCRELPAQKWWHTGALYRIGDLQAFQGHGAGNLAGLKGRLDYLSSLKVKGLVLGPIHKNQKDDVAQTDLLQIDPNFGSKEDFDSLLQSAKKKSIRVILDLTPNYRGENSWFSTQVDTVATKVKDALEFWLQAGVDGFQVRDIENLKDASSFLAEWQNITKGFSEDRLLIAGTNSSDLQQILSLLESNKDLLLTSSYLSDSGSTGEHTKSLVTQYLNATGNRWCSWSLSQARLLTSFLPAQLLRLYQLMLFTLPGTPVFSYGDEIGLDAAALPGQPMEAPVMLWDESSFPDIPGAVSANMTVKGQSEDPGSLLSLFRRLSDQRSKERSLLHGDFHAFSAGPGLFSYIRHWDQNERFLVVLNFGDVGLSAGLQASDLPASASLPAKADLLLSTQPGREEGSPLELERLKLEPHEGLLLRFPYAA
Nature of the series: Competition profile indicating uptake via xCT (SLC7A11). Particulars: co-incubation with 1 mM cold competitors, NCI-H460 cells. The format is cell-based. On the procedure:
For determination of the responsible uptake mechanism, NCI-H460 tumor cells were co-incubated with the F-18 labeled tracer and several cold derivatives. These derivatives were used at a concentration of 1 mM, which is a large excess compared to the tracer. L-Glutamic acid, L-cystine, Carboxyphenylglycine (CPG) were used as competitors. In addition, also D-Glutamic acid, as well as L-aspartic acid and D-aspartic acid were used in this competition experiments. […] The same experiments were performed using [^18F]-1, [^18F]-4, [^18F]-9, [^18F]-8, [^18F]-25 and [^18F]-22.

For series [2], the system named is NCI-H460 tumor. Kind of series: PET imaging in NCI-H460 tumor bearing nude-mice. Particulars: PET at 60 min p.i., approx. 10 MBq. Type of series: in vivo. Here is the method: a) [^18F]-1 was examined in NCI-H460 tumor bearing nude-mice using PET-imaging. Approx. 10 MBq of the tracer was injected into the animals and PET images were acquired at 60 min p.i. for 10 minutes. The H460-tumor was very well visible in the images with 3.6% ID/g as was determined by region of interest (ROI) analysis. Except of some uptake into the bladder due to the renal excretion, no uptake into non target tissues was observed.
b) [^18F]-12 was examined in the same animal model in mice as described above. Approx. 10 MBq was injected into the animals and PET images were obtained at 60 min p.i. for 10 min. The NCI-H460 tumor was very well visible and uptake of 2.7% ID/g into the tumor was calculated by ROI analysis. Except of some uptake into the gallbladder due to a partial hepatobiliary clearance of this derivative, the majority of activity is excreted renally, resulting in a strong PET signal from the bladder. No uptake in other non-target tissues was observed.

Series [3] has as its system NCI-H460 tumor. Kind of series: PET imaging in NCI-H460 tumor bearing nude-rats. The format is in vivo. In short, it runs like this:
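NCI-H460 cells were inoculated into the right flank of nude rats (RH-Foxn1 nu/nu) 8 to 10 days before imaging. PET images were acquired for 10 minutes at 60 min after injection of approximately 10 MBq tracer. Tumor, liver and kidney activity was derived by ROI analysis as %ID/g.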

Molecules are shown by their SMILES.

In the case of `N[C@@H](CCC(Cc1ccc(OCC[18F])cc1)C(=O)O)C(=O)O` (stereo partly drawn) [[^18F]-12] [(2S)-2-Amino-5-[4-(2-[^18F]fluoroethoxy)benzyl]hexanedioic acid], the “30 min uptake into H460 cells [%/100.000 cells]” value in series [1] is given as 10.5 ± 0.3 %/100.000 cells. The “competition profile / uptake mechanism of the tracer” value on xCT (SLC7A11) is recorded as “specific uptake”. Also, the “H460 tumor uptake by ROI analysis” value with NCI-H460 tumor [2] stood at 2.7 % ID/g. Also, in the series on NCI-H460 tumor [3] (PET ROI analysis, 1 h p.i.), the “Kidney (% ID/g at 1 h p.i.)” value turned out to be 0.9 % ID/g, the “Liver (% ID/g at 1 h p.i.)” value amounted to 0.8 % ID/g, the “Tumor (Max % ID/g at 1 h p.i.)” value was determined as 2.2 % ID/g and the “Tumor (Mean % ID/g at 1 h p.i.)” value is reported as 0.9 % ID/g. In addition, the “H460 tumor uptake by ROI analysis” value in the series with NCI-H460 tumor [3] (PET at 60 min after injection, approx. 10 MBq) stood at 0.9 % ID/g.

(Values after US9238631B2, “Radiolabeled amino acids for diagnostic imaging” (PIRAMAL IMAGING SA, priority 2011, dated 2016).)
